These results are taken from PubChem BioAssay AID1259411 (Chemical Carcinogenesis Research Information System (CCRIS), 2018).

The source made the active and inactive calls. How the calls were made is not given here.

For this series, the system named is rodent carcinogenicity bioassays, tumor incidence. The series is described as follows: CCRIS carcinogenicity studies. An excerpt:
The CCRIS database contains chemical records with carcinogenicity, mutagenicity, tumor promotion, and tumor inhibition test results. It was developed by the National Cancer Institute (NCI). Data are derived from studies cited in primary journals, current awareness tools, NCI reports, and other sources. Test results have been reviewed by experts in carcinogenesis and mutagenesis.
CCRIS provides historical information from the years 1985 - 2011. It is no longer updated.
This is an archive assay for CCRIS carcinogenicity studies.

Regarding `CCCCCN(C)N=O`, the carcinogen call (Species: HAMSTER, Strain/Sex: SYRIAN/FEMALE, Route: GAVAGE, Dose: 0, 5.6 MG/KG 1/WK FOR 23-30 WK (TOTAL DOSE: 0; 1.1 MMOL) (STUDY DURATION: LIFETIME), Dose: 0, 5.6 MG/KG 1/WK FOR 23-30 WK (TOTAL DOSE: 0; 1.1 MMOL) (STUDY DURATION: LIFETIME), Tumor Site: Type of Lesion: LUNG: ALVEOLAR/BRONCHIAL ADENOMA, NASAL MUCOSA: CARCINOMA, ADENOMA, FORESTOMACH: SQUAMOUS CELL CARCINOMA, SQUAMOUS CELL, Tumor Site: Type of Lesion: LUNG: ALVEOLAR/BRONCHIAL ADENOMA, NASAL MUCOSA: CARCINOMA, ADENOMA, FORESTOMACH: SQUAMOUS CELL CARCINOMA, SQUAMOUS CELL) is “active; positive”; the carcinogen call (Species: HAMSTER, Strain/Sex: SYRIAN/MALE,FEMALE, Route: INTRAPERITONEAL, Dose: 0, 3, 6 MG/KG ONCE ON DAYS 1 AND 3 OF AGE, RESPECTIVELY (STUDY DURATION: >75 WK), Dose: 0, 3, 6 MG/KG ONCE ON DAYS 1 AND 3 OF AGE, RESPECTIVELY (STUDY DURATION: >75 WK)) was “inactive; negative”; the carcinogen call (Species: HAMSTER, Strain/Sex: SYRIAN/MALE,FEMALE, Route: INTRAPERITONEAL, Dose: 0, 3 MG/KG ONCE TO NEWBORN ANIMALS (STUDY DURATION: LIFETIME)) is “inactive; negative”; the carcinogen call (Species: HAMSTER, Strain/Sex: SYRIAN/MALE,FEMALE, Route: INTRAPERITONEAL, Dose: 0, 6 MG/KG ONCE TO 3 D-OLD ANIMALS (STUDY DURATION: LIFETIME)) was “inactive; negative”; the carcinogen call (Species: HAMSTER, Strain/Sex: SYRIAN/MALE,FEMALE, Route: INTRAPERITONEAL, Dose: 0, 70-100 MG/KG ONCE TO ADULT ANIMALS (STUDY DURATION: LIFETIME), Tumor Site: Type of Lesion: ESOPHAGUS: PAPILLOMA OR CARCINOMA) is “active; positive”; the carcinogen call (Species: HAMSTER, Strain/Sex: SYRIAN/MALE,FEMALE, Route: INTRAPERITONEAL, Dose: 0, 70 MG/KG (3 MALE HAMSTERS), 100 MG/KG (11 FEMALE HAMSTERS) ONCE AT 46-49 DAYS OF AGE (STUDY DURATION: >43 WK), Dose: 0, 70 MG/KG (3 MALE HAMSTERS), 100 MG/KG (11 FEMALE HAMSTERS) ONCE AT 46-49 DAYS OF AGE (STUDY DURATION: >43 WK)) is “inactive; negative”. The carcinogen call by setting is: (Species: HAMSTER, Strain/Sex: SYRIAN/MALE,FEMALE, Route: INTRAPERITONEAL, Dose: 0, 75 MG/KG 1/WK FOR 6 WK BEGINNING AT 38 DAYS OF AGE (STUDY DURATION: >33 WK), Tumor Site: Type of Lesion: FORESTOMACH: PAPILLOMA, LUNG: ADENOMA, NASAL CAVITY: TUMOR, Tumor Site: Type of Lesion: FORESTOMACH: PAPILLOMA, LUNG: ADENOMA, NASAL CAVITY: TUMOR) “active; positive”; (Species: HAMSTER, Strain/Sex: SYRIAN/MALE,FEMALE, Route: INTRAPERITONEAL, Dose: 0, 75 MG/KG 1/WK FOR 6 WK TO ADULT ANIMALS (STUDY DURATION: LIFETIME), Tumor Site: Type of Lesion: ESOPHAGUS: PAPILLOMA, FORESTOMACH: PAPILLOMA, LUNG: ADENOMA, NASAL CAVITY: ADENOMA, ADENOCARCINOMA OR SQUAMOUS CARCINOMA, Tumor Site: Type of Lesion: ESOPHAGUS: PAPILLOMA, FORESTOMACH: PAPILLOMA, LUNG: ADENOMA, NASAL CAVITY: ADENOMA, ADENOCARCINOMA OR SQUAMOUS CARCINOMA) “active; positive”; (Species: HAMSTER, Strain/Sex: SYRIAN/MALE, Route: GAVAGE, Dose: 0, 5.6 MG/KG 1/WK FOR 23-30 WK (TOTAL DOSE: 0; 1.1 MMOL) (STUDY DURATION: LIFETIME), Dose: 0, 5.6 MG/KG 1/WK FOR 23-30 WK (TOTAL DOSE: 0; 1.1 MMOL) (STUDY DURATION: LIFETIME), Tumor Site: Type of Lesion: LIVER: HEPATOCELLULAR ADENOMA, HEMANGIOSARCOMA, LUNG: ALVEOLAR/BRONCHIAL ADENOMA, NASAL MUCOSA: CARCINOMA, FORESTOMACH:, Tumor Site: Type of Lesion: LIVER: HEPATOCELLULAR ADENOMA, HEMANGIOSARCOMA, LUNG: ALVEOLAR/BRONCHIAL ADENOMA, NASAL MUCOSA: CARCINOMA, FORESTOMACH:) “active; positive”; (Species: MOUSE, Strain/Sex: 101/N/MALE, FEMALE, Route: ORAL, Dose: 0, 0.0015% IN DRINKING WATER FOR 8 WK (STUDY DURATION: 24 WK), Tumor Site: Type of Lesion: ESOPHAGUS: TUMOR) “active; positive”; (Species: MOUSE, Strain/Sex: BXH-8/MALE, FEMALE, Route: ORAL, Dose: 0, 0.0015% IN DRINKING WATER FOR 8 WK (STUDY DURATION: 24 WK), Tumor Site: Type of Lesion: ESOPHAGUS: TUMOR) “active; positive”; (Species: MOUSE, Strain/Sex: C57BL/MALE,FEMALE, Route: ORAL, Dose: 0, 0.0015% IN DRINKING WATER FOR 8 WK (STUDY DURATION: 24 WK), Tumor Site: Type of Lesion: ESOPHAGUS:TUMOR) “active; positive”. The carcinogen call (Species: MOUSE, Strain/Sex: STX/LE/MALE,FEMALE, Route: ORAL, Dose: 0, 0.0015% IN DRINKING WATER FOR 8 WK (STUDY DURATION: 24 WK), Tumor Site: Type of Lesion: ESOPHAGUS: TUMOR) was “active; positive”; the carcinogen call (Species: MOUSE, Strain/Sex: SWISS/MALE,FEMALE, Route: INTRAPERITONEAL, Dose: 0, 15 MG/KG 1/WK FOR 3 WK BEGINNING AT 38 DAYS OF AGE (STUDY DURATION: >79 WK), Tumor Site: Type of Lesion: ESOPHAGUS: PAPILLOMA, LUNG: ADENOMA) is “active; positive”; the carcinogen call (Species: MOUSE, Strain/Sex: SWISS/MALE,FEMALE, Route: INTRAPERITONEAL, Dose: 0, 15 MG/KG 1/WK FOR 3 WK TO ADULT ANIMALS (STUDY DURATION: LIFETIME), Tumor Site: Type of Lesion: ESOPHAGUS: PAPILLOMA, LUNG: ADENOMA) was “active; positive”; the carcinogen call (Species: RAT, Strain/Sex: WISTAR/MALE,FEMALE, Route: INTRAPERITONEAL, Dose: 0, 6, 12.5 MG/KG ONCE AT 1 AND 3 DAYS OF AGE, RESPECTIVELY (STUDY DURATION: >82 WK), Dose: 0, 6, 12.5 MG/KG ONCE AT 1 AND 3 DAYS OF AGE, RESPECTIVELY (STUDY DURATION: >82 WK)) is “inactive; negative”; the carcinogen call (Species: RAT, Strain/Sex: WISTAR/MALE,FEMALE, Route: INTRAPERITONEAL, Dose: 0, 6 MG/KG ONCE TO NEWBORN ANIMALS (STUDY DURATION: LIFETIME)) is “inactive; negative”; the carcinogen call (Species: RAT, Strain/Sex: WISTAR/MALE,FEMALE, Route: INTRAPERITONEAL, Dose: 0, 12.5 MG/KG ONCE TO 3 D-OLD ANIMALS (STUDY DURATION: LIFETIME)) was “inactive; negative”. Besides, the carcinogen call (Species: RAT, Strain/Sex: WISTAR/MALE,FEMALE, Route: INTRAPERITONEAL, Dose: 0, 50-70 MG/KG ONCE TO ADULT ANIMALS (STUDY DURATION: LIFETIME), Tumor Site: Type of Lesion: ESOPHAGUS: PAPILLOMA, CARCINOMA) is “active; positive” and the carcinogen call (Species: RAT, Strain/Sex: WISTAR/MALE,FEMALE, Route: INTRAPERITONEAL, Dose: 0, 50 MG/KG (7 FEMALE RATS), 60 MG/KG (2 FEMALE RATS), 70 MG/KG (10 MALE RATS) ONCE AT 42-50 DAYS OF AGE (STUDY DURATION, Dose: 0, 50 MG/KG (7 FEMALE RATS), 60 MG/KG (2 FEMALE RATS), 70 MG/KG (10 MALE RATS) ONCE AT 42-50 DAYS OF AGE (STUDY DURATION, Tumor Site: Type of Lesion: ESOPHAGUS: CARCINOMA) was “active; positive”.

`CCNNCC`: the carcinogen call (Species: RAT, Route: PRE-NATAL EXP, Tumor Site: Type of Lesion: BRAIN, NERVOUS SYSTEM) was “active; positive”.

As for `CCN(CC)CCNc1ccc(CO)c2sc3ccccc3c(=O)c12`, the carcinogen call (Species: MOUSE, Route: INTRAMUSCULAR, Tumor Site: Type of Lesion: LIVER) was “active; positive”.

Take `CCN(CC)C(=O)/C(Cl)=C(\C)OP(=O)(OC)OC`: the carcinogen call is “inactive; negative” (Species: MOUSE, Strain/Sex: B6C3F1/FEMALE, Route: ORAL, Dose: 0, 80, 160 PPM IN DIET, Dose: 0, 80, 160 PPM IN DIET); “inactive; negative” (Species: MOUSE, Strain/Sex: B6C3F1/MALE, Route: ORAL, Dose: 0, 80, 160 PPM IN DIET, Dose: 0, 80, 160 PPM IN DIET); “equivocal” (Species: RAT, Strain/Sex: OSBORNE-MENDEL/FEMALE, Route: ORAL, Dose: 0, 80, 160 PPM IN DIET FOR 80 WK (STUDY DURATION: 111 WK), Dose: 0, 80, 160 PPM IN DIET FOR 80 WK (STUDY DURATION: 111 WK), Tumor Site: Type of Lesion: THYROID GLAND: C-CELL ADENOMA OR CARCINOMA); “equivocal” (Species: RAT, Strain/Sex: OSBORNE-MENDEL/MALE, Route: ORAL, Dose: 0, 80, 160 PPM IN DIET FOR 80 WK (STUDY DURATION: 111 WK), Dose: 0, 80, 160 PPM IN DIET FOR 80 WK (STUDY DURATION: 111 WK), Tumor Site: Type of Lesion: SPLEEN: HEMANGIOMA OR HEMANGIOSARCOMA).
